74 compounds from the Kinase Knowledgebase extract (Sharma et al. 2016) can be followed below.

A value given as a limit tells only on which side of the number the result lay.

EGFR, sequence (P00533 whole entry, looked up): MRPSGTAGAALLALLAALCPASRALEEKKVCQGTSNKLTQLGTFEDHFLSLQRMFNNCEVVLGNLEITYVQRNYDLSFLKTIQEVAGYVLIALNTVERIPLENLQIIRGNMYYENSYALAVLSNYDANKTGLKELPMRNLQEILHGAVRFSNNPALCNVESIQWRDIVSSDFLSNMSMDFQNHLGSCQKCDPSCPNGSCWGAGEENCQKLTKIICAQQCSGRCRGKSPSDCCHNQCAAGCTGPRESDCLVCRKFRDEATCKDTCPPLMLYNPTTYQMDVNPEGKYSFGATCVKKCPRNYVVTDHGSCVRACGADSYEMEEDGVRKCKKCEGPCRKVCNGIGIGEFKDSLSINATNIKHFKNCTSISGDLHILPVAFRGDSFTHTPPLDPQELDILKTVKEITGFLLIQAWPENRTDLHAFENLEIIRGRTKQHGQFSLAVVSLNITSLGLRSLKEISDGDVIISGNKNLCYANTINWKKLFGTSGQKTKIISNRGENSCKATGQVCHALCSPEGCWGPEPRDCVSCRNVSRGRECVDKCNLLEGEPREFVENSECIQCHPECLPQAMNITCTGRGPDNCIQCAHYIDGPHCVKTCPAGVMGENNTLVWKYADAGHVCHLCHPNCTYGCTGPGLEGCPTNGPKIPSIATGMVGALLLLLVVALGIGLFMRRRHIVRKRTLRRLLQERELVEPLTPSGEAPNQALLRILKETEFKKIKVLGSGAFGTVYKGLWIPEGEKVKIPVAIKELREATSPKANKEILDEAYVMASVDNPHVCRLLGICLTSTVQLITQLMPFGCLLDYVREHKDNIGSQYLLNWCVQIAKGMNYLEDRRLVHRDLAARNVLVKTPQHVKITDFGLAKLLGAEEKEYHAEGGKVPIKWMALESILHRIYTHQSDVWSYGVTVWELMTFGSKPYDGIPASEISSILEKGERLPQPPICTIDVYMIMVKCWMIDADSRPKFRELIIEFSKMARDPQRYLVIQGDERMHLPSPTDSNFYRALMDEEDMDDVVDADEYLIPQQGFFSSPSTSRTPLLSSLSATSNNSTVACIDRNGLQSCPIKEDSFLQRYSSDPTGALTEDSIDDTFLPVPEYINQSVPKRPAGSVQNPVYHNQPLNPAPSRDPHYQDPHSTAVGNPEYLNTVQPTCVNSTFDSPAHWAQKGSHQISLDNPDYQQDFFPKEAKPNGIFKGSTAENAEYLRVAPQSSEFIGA

This experiment has as its target EGFR (UniProt P00533).
`CCN1CCC(Nc2ccc3c(c2)/C(=C(\c2cccc(C(F)(F)F)c2)c2nc(C)c[nH]2)C(=O)N3)CC1`: the IC50 is 500 to 5000 nM. The same measure for `CN(C)CCN1CCC(Nc2ccc3c(c2)/C(=C(\c2ccccc2)c2nc4ccccc4[nH]2)C(=O)N3)CC1`: 500 to 5000 nM; for `COCCN1CCC(Nc2ccc3c(c2)/C(=C(\c2ccc(F)cc2)c2ncc[nH]2)C(=O)N3)CC1`: above 5000 nM; for `CCN1CCC(Nc2ccc3c(c2)/C(=C(\c2ccc(OC)cc2)c2ncc[nH]2)C(=O)N3)CC1`: 500 to 5000 nM. The value for `CCOC(=O)c1[nH]c(/C(=C2\C(=O)Nc3ccc(NC4CCN(CCOC)CC4)cc32)c2cccc(F)c2)nc1C` was above 5000 nM; that for `CCN1CCC(Oc2ccc3c(c2)/C(=C(\c2cccc(Cl)c2)c2nc4ccccc4[nH]2)C(=O)N3)CC1` was 500 to 5000 nM; that for `O=C1Nc2ccc(NC3CCN(CCN4CCOCC4)CC3)cc2/C1=C(\c1cccc(F)c1)c1ncc[nH]1` was above 5000 nM. As to `CC1(C)CC(Nc2ccc3c(c2)/C(=C(\c2ccccc2)c2nc4ccccc4[nH]2)C(=O)N3)CC(C)(C)N1`, the IC50 was in the range of 500 to 5000 nM. `COCCN1CCC(Nc2ccc3c(c2)/C(=C(\c2ccc(OC)cc2)c2ncc[nH]2)C(=O)N3)CC1` gave an IC50 above 5000 nM.

Take `CCN1CCC(Oc2ccc3c(c2)/C(=C(\c2cc(F)cc(F)c2)c2nc4ccccc4[nH]2)C(=O)N3)CC1`: the IC50 was 500 to 5000 nM.

For the compound `COCCN1CCC(Nc2ccc3c(c2)/C(=C(\c2cccc(Cl)c2)c2ncc[nH]2)C(=O)N3)CC1`, the IC50 lay in the range of 500 to 5000 nM. The compound `COCCN1CCC(Oc2ccc3c(c2)/C(=C(\c2cccc(Cl)c2)c2nc4ccccc4[nH]2)C(=O)N3)CC1` returned an IC50 of 50 to 500 nM. The same measure for `CCN1CCC(Nc2ccc3c(c2)/C(=C(/c2ncc[nH]2)c2ccccc2F)C(=O)N3)CC1`: 50 to 500 nM.

Take `CCN1CCC(Nc2ccc3c(c2)/C(=C(\c2ccc(C)cc2)c2nc(C)c[nH]2)C(=O)N3)CC1`: the IC50 was in the range of 50 to 500 nM. The same measure for `CCN1CCC(Nc2ccc3c(c2)/C(=C(\c2ccc(C(F)(F)F)cc2)c2nc(C)c[nH]2)C(=O)N3)CC1`: 50 to 500 nM; for `COCCN1CCC(Nc2ccc3c(c2)/C(=C(\c2cccc(F)c2)c2nc4ccccc4[nH]2)C(=O)N3)CC1`: 50 to 500 nM. Compound `COCCN1CCC(Nc2ccc3c(c2)/C(=C(\c2ccc(C(F)(F)F)cc2)c2ncc[nH]2)C(=O)N3)CC1` came in with an IC50 above 5000 nM. The same measure for `CCN1CCC(Nc2ccc3c(c2)/C(=C(/c2nc(C)c[nH]2)c2ccc(C(F)(F)F)cc2F)C(=O)N3)CC1`: 50 to 500 nM; for `COCCN1CCC(Nc2ccc3c(c2)/C(=C(\c2ccc(F)c(F)c2)c2ncc[nH]2)C(=O)N3)CC1`: above 5000 nM; for `O=C1Nc2ccc(OC3CCN(Cc4ccccc4)CC3)cc2/C1=C(\c1ccccc1)c1nc2ccccc2[nH]1`: 500 to 5000 nM.

Take `COc1ccc2[nH]c(/C(=C3\C(=O)Nc4ccc(NC5CCN(Cc6ccccc6)C5)cc43)c3ccccc3)nc2c1` (centres undefined): the IC50 is 500 to 5000 nM. The same measure for `CCN1CCCC(Nc2ccc3c(c2)/C(=C(\c2ccccc2)c2nc4cc(OC)ccc4[nH]2)C(=O)N3)C1` (centres undefined): 500 to 5000 nM; for `CCN1CCC(Nc2ccc3c(c2)/C(=C(\c2cccc(F)c2)c2nc(-c4ccccc4)c[nH]2)C(=O)N3)CC1`: 50 to 500 nM; for `CCN1CCC(Nc2ccc3c(c2)/C(=C(\c2ccc(C)c(F)c2)c2nc(C)c[nH]2)C(=O)N3)CC1`: below 50 nM. The value for `CCN1CCC(Nc2ccc3c(c2)/C(=C(\c2cccc(OC)c2)c2nc4ccccc4[nH]2)C(=O)N3)CC1` was 50 to 500 nM; that for `COCCN1CCC(Nc2ccc3c(c2)/C(=C(\c2ccc(C(F)(F)F)c(F)c2)c2ncc[nH]2)C(=O)N3)CC1` was above 5000 nM; that for `CCN1CCC(Nc2ccc3c(c2)/C(=C(\c2cccc(N)c2)c2nc4ccccc4[nH]2)C(=O)N3)CC1` was 500 to 5000 nM.

The compound `CCN1CCC(Nc2ccc3c(c2)/C(=C(\c2cccc(C(=N)N)c2)c2nc4ccccc4[nH]2)C(=O)N3)CC1` returned an IC50 of 500 to 5000 nM.

On to `COCCN1CCC(Nc2ccc3c(c2)/C(=C(\c2ccc(F)c(Cl)c2)c2ncc[nH]2)C(=O)N3)CC1`, for which the half-inhibitory concentration (IC50) was above 5000 nM. The value for `CCN1CCC(N(C)c2ccc3c(c2)/C(=C(\c2cccc(Cl)c2)c2nc4ccccc4[nH]2)C(=O)N3)CC1` was 500 to 5000 nM; that for `CCN1CCC(Oc2ccc3c(c2)/C(=C(\c2cccc(Cl)c2)c2ncc[nH]2)C(=O)N3)CC1` was 500 to 5000 nM. The same measure for `COCCN1CCC(Nc2ccc3c(c2)/C(=C(\c2cccc(F)c2)c2nc(-c4ccccc4)c[nH]2)C(=O)N3)CC1`: 50 to 500 nM; for `CCN1CCC(Nc2ccc3c(c2)/C(=C(/c2nc(C)c[nH]2)c2ccc(F)cc2F)C(=O)N3)CC1`: 50 to 500 nM. Consider `COc1ccc2[nH]c(/C(=C3\C(=O)Nc4ccc(NC5CC(C)(C)NC(C)(C)C5)cc43)c3ccccc3)nc2c1`, for which the IC50 is 500 to 5000 nM. The same measure for `CCN1CCC(Nc2ccc3c(c2)/C(=C(\c2ccc(F)c(F)c2)c2nc(C)c[nH]2)C(=O)N3)CC1`: below 50 nM; for `CCN1CCC(Nc2ccc3c(c2)/C(=C(\c2cccc(C#N)c2)c2nc4ccccc4[nH]2)C(=O)N3)CC1`: 500 to 5000 nM; for `CCN1CCC(Nc2ccc3c(c2)/C(=C(\c2cccc(C(F)(F)F)c2)c2ncc[nH]2)C(=O)N3)CC1`: 500 to 5000 nM. Compound `CCN1CCC(Nc2ccc3c(c2)/C(=C(\c2cc(F)cc(F)c2)c2nc(C)c[nH]2)C(=O)N3)CC1` registered an IC50 of 50 to 500 nM. With `CCN1CCC(Nc2ccc3c(c2)/C(=C(\c2ccc(OC)cc2)c2nc4cc(OC)ccc4[nH]2)C(=O)N3)CC1`, the concentration for half-maximal inhibition (IC50) is 500 to 5000 nM. In turn, `CS(=O)(=O)N1CCC(Nc2ccc3c(c2)/C(=C(\c2cccc(F)c2)c2ncc[nH]2)C(=O)N3)CC1` returned an IC50 above 5000 nM.

In turn, `CCN1CCC(Nc2ccc3c(c2)/C(=C(\c2ccccc2)c2nc(CCN4C(=O)c5ccccc5C4=O)c[nH]2)C(=O)N3)CC1` came in with an IC50 of 500 to 5000 nM. Compound `CCN1CCC(Nc2ccc3c(c2)/C(=C(\c2cccc([N+](=O)[O-])c2)c2nc4ccccc4[nH]2)C(=O)N3)CC1` returned an IC50 of 500 to 5000 nM. Regarding `CCN1CCC(Nc2ccc3c(c2)/C(=C(\c2ccc(C(F)(F)F)nc2)c2ncc[nH]2)C(=O)N3)CC1`, the IC50 was above 5000 nM.

As for `CCN(CC)CCN1CCC(Nc2ccc3c(c2)/C(=C(\c2cccc(F)c2)c2ncc[nH]2)C(=O)N3)CC1`, the IC50 is above 5000 nM. The value for `CCCc1ccc(/C(=C2/C(=O)Nc3ccc(NC4CCN(CCOC)CC4)cc32)c2ncc[nH]2)cc1` was 50 to 500 nM; that for `O=C1Nc2ccc(NC3CCN(CCN4CCCCC4)CC3)cc2/C1=C(\c1cccc(F)c1)c1ncc[nH]1` was above 5000 nM; that for `CCN1CCC(Nc2ccc3c(c2)/C(=C(/c2nc(C)c[nH]2)c2ccc(Cl)cc2F)C(=O)N3)CC1` was below 50 nM. In the case of `O=C1Nc2ccc(NC3CCNCC3)cc2/C1=C(\c1cccc(F)c1)c1ncc[nH]1`, the IC50 was above 5000 nM. In the case of `COCCN1CCC(Nc2ccc3c(c2)/C(=C(\c2ccccc2)c2nc4cc(Cl)ccc4[nH]2)C(=O)N3)CC1`, the IC50 is above 5000 nM. `CCN1CCC(Nc2ccc3c(c2)/C(=C(/c2cc(F)cc(F)c2)c2nc4cc(F)ccc4[nH]2)C(=O)N3)CC1` gave a half-maximal inhibitory concentration (IC50) above 5000 nM. The value for `CCN1CCC(Nc2ccc3c(c2)/C(=C(\c2cccc(Cl)c2)c2ncc[nH]2)C(=O)N3)CC1` was 50 to 500 nM; that for `CCN1CCC(Nc2ccc3c(c2)/C(=C(/c2nc(C)c[nH]2)c2cccc(F)c2F)C(=O)N3)CC1` was 50 to 500 nM; that for `CCN1CCC(Nc2ccc3c(c2)/C(=C(\c2cc(F)cc(F)c2)c2nc4cc(F)ccc4[nH]2)C(=O)N3)CC1` was 50 to 500 nM. `COCCN1CCC(Nc2ccc3c(c2)/C(=C(\c2cccc(Cl)c2)c2nc4ccccc4[nH]2)C(=O)N3)CC1`: the IC50 fell in the range of 500 to 5000 nM. The value for `CCCc1ccc(/C(=C2/C(=O)Nc3ccc(NC4CCN(CC)CC4)cc32)c2ncc[nH]2)cc1` was 50 to 500 nM; that for `CCN1CCC(Nc2ccc3c(c2)/C(=C(\c2ccc(C)cc2)c2ncc[nH]2)C(=O)N3)CC1` was 50 to 500 nM. The same measure for `CCN1CCC(Nc2ccc3c(c2)/C(=C(\c2ccc(F)c(Cl)c2)c2nc(C)c[nH]2)C(=O)N3)CC1`: 50 to 500 nM; for `CCN1CCC(Nc2ccc3c(c2)/C(=C(/c2ncc[nH]2)c2cccc(F)c2F)C(=O)N3)CC1`: 50 to 500 nM. The same measure for `O=C1Nc2ccc(NC3CC4CCC(C3)N4)cc2/C1=C(\c1ccccc1)c1nc2ccccc2[nH]1` (centres undefined): 500 to 5000 nM. In turn, `COCCN1CCC(Nc2ccc3c(c2)/C(=C(\c2ccc(Cl)cc2)c2ncc[nH]2)C(=O)N3)CC1` returned an IC50 above 5000 nM. The same measure for `CCN1CCC(Nc2ccc3c(c2)/C(=C(\c2ccc(F)c(F)c2)c2ncc[nH]2)C(=O)N3)CC1`: 500 to 5000 nM; for `COCCN1CCC(Nc2ccc3c(c2)/C(=C(\c2ccc(C)c(F)c2)c2ncc[nH]2)C(=O)N3)CC1`: 50 to 500 nM.

Compound `COCCN1CCC(Nc2ccc3c(c2)/C(=C(\c2ccc(F)cc2)c2nc4ccccc4[nH]2)C(=O)N3)CC1` came in with an IC50 of 500 to 5000 nM. Consider `CCN1CCC(Nc2ccc3c(c2)/C(=C(\c2cc(F)cc(F)c2)c2ncc[nH]2)C(=O)N3)CC1`, for which the IC50 was in the range of 50 to 500 nM.

Compound `CCN1CCC(Nc2ccc3c(c2)/C(=C(\c2cccc(Cl)c2)c2nc4ccccc4[nH]2)C(=O)N3)CC1` came in with an IC50 of 50 to 500 nM. Take `CCN1CCC(Nc2ccc3c(c2)/C(=C(\c2ccc(C)c(F)c2)c2nc4ccccc4[nH]2)C(=O)N3)CC1`: the IC50 is below 50 nM. The value for `CCN1CCC(Nc2ccc3c(c2)/C(=C(\c2ccc(C(F)(F)F)c(F)c2)c2ncc[nH]2)C(=O)N3)CC1` was 50 to 500 nM; that for `COCCN1CCC(Nc2ccc3c(c2)/C(=C(\c2ccc(C)cc2)c2ncc[nH]2)C(=O)N3)CC1` was 50 to 500 nM; that for `O=C1Nc2ccc(NC3CCN(CCN4CCCC4)CC3)cc2/C1=C(\c1cccc(F)c1)c1ncc[nH]1` was above 5000 nM. On to `COCCN1CCC(Oc2ccc3c(c2)/C(=C(\c2cc(F)cc(F)c2)c2nc4ccccc4[nH]2)C(=O)N3)CC1`, for which the IC50 fell in the range of 500 to 5000 nM. The value for `CCN1CCC(Nc2ccc3c(c2)/C(=C(\c2ccc(C)cc2)c2nc4cc(OC)ccc4[nH]2)C(=O)N3)CC1` was 500 to 5000 nM; that for `CCN1CCC(Nc2ccc3c(c2)/C(=C(\c2ccc(Cl)cc2)c2nc(C)c[nH]2)C(=O)N3)CC1` was 50 to 500 nM. The value for `CCN1CCC(Nc2ccc3c(c2)/C(=C(\c2ccc(C(F)(F)F)c(F)c2)c2nc(C)c[nH]2)C(=O)N3)CC1` was below 50 nM; that for `COCCN1CCC(Nc2ccc3c(c2)/C(=C(\c2cccc(F)c2)c2ncn[nH]2)C(=O)N3)CC1` was above 5000 nM.

One may read the IC50 as the concentration that inhibits the measured activity by half.
